According to PubChem BioAssay AID330 (DTP/NCI, 2004):
Values joined by “and” are separate entries in the source; they are usually repeats but may differ in a detail not shown here. Equal values may be shown once. Toxic doses and inconclusive results are not listed. Rule for the calls: active = survival T/C of 150% or more; inactive = T/C below 125% in these data.

Test system: P388 leukemia ip, CD2F1 mice, survival T/C
Assay: NCI In Vivo Anticancer Drug Screen. Data for tumor model P388 Leukemia (intraperitoneal) in CD2F1 (CDF1) mice
Conditions: endpoint: median survival time, higher = longer survival
Procedure, shortened: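 Mice carrying the transplanted tumor received test compound or vehicle. Survival was recorded in each group, and the value is the treated-group measurement divided by that of the vehicle-treated control group.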

[1] = dose: 2.5 mg/kg/injection, schedule: Q01DX009 (ip), vehicle: saline
[2] = dose: 5.0 mg/kg/injection, schedule: Q01DX009 (ip), vehicle: saline
[3] = dose: 50.0 mg/kg/injection, schedule: Q01DX009 (ip), vehicle: saline with Tween-80
[4] = dose: 100.0 mg/kg/injection, schedule: Q01DX009 (ip), vehicle: saline with Tween-80
[5] = dose: 200.0 mg/kg/injection, schedule: Q01DX009 (ip), vehicle: saline with Tween-80
[6] = dose: 50.0 mg/kg/injection, schedule: Q01DX005 (ip), vehicle: Klucel (hydroxypropylcellulose) (HPC)
[7] = dose: 100.0 mg/kg/injection, schedule: Q01DX005 (ip), vehicle: Klucel (hydroxypropylcellulose) (HPC)
[8] = dose: 200.0 mg/kg/injection, schedule: Q01DX005 (ip), vehicle: Klucel (hydroxypropylcellulose) (HPC)
[9] = dose: 240.0 mg/kg/injection, schedule: Q01DX005 (ip), vehicle: saline with Tween-80
[10] = dose: 60.0 mg/kg/injection, schedule: Q01DX005 (ip), vehicle: saline with Tween-80
[11] = dose: 120.0 mg/kg/injection, schedule: Q01DX005 (ip), vehicle: saline with Tween-80

Measured: T/C

COC(=O)c1ccc2c(c1)C(NC(C)=O)CCc1cc(OC)c(OC)c(OC)c1-2 (stereo not drawn)
inactive: dose: 0.25 mg/kg/injection, schedule: Q01DX005 (ip), vehicle: saline 106 % of control | dose: 0.5 mg/kg/injection, schedule: Q01DX005 (ip), vehicle: saline 99 % of control | dose: 1.0 mg/kg/injection, schedule: Q01DX005 (ip), vehicle: saline 101 % of control | dose: 2.0 mg/kg/injection, schedule: Q01DX005 (ip), vehicle: saline 106 % of control | dose: 4.0 mg/kg/injection, schedule: Q01DX005 (ip), vehicle: saline 114 % of control

Cc1cc(O)cc(O)c1C(=O)OC1C[C@@]2(C)C1=C(CO)C[C@@H]1CC(C)(C)C[C@@H]12 (stereo partly drawn)
inactive: dose: 1.25 mg/kg/injection, schedule: Q01DX005 (ip), vehicle: Klucel (hydroxypropylcellulose) (HPC) 96 % of control | dose: 2.5 mg/kg/injection, schedule: Q01DX005 (ip), vehicle: Klucel (hydroxypropylcellulose) (HPC) 99 % of control | dose: 5.0 mg/kg/injection, schedule: Q01DX005 (ip), vehicle: Klucel (hydroxypropylcellulose) (HPC) 96 % of control | dose: 10.0 mg/kg/injection, schedule: Q01DX005 (ip), vehicle: Klucel (hydroxypropylcellulose) (HPC) 96 % of control | dose: 20.0 mg/kg/injection, schedule: Q01DX005 (ip), vehicle: Klucel (hydroxypropylcellulose) (HPC) 100 % of control | dose: 40.0 mg/kg/injection, schedule: Q01DX005 (ip), vehicle: Klucel (hydroxypropylcellulose) (HPC) 106 % of control | dose: 80.0 mg/kg/injection, schedule: Q01DX005 (ip), vehicle: Klucel (hydroxypropylcellulose) (HPC) 112 % of control | dose: 160.0 mg/kg/injection, schedule: Q01DX005 (ip), vehicle: Klucel (hydroxypropylcellulose) (HPC) 104 % of control

O=C1C2=C(SCCS2)C(=O)N1c1cccc2ccccc12
inactive: dose: 50.0 mg/kg/injection, schedule: Q01DX009 (ip), vehicle: saline 97 % of control | dose: 100.0 mg/kg/injection, schedule: Q01DX009 (ip), vehicle: saline 97 % of control | dose: 200.0 mg/kg/injection, schedule: Q01DX009 (ip), vehicle: saline 100 % of control

CCOc1c(Cl)cc(Cl)cc1C(c1ccccc1S(=O)(=O)O)c1cc(Cl)cc(Cl)c1OCC
inactive: dose: 6.25 mg/kg/injection, schedule: Q01DX009 (ip), vehicle: saline with Tween-80 100 % of control | dose: 12.5 mg/kg/injection, schedule: Q01DX009 (ip), vehicle: saline with Tween-80 91 % of control

CCCCCCCCCCCCCCCCN(CC)CC
inactive: [1] 105 % of control | [2] 108 % of control | dose: 10.0 mg/kg/injection, schedule: Q01DX009 (ip), vehicle: saline 103 % of control

CCc1cccc2c(NCCCCCCNc3c4ccccc4nc4c(CC)cccc34)c3ccccc3nc12
inactive: dose: 0.63 mg/kg/injection, schedule: Q01DX009 (ip), vehicle: other 113 % of control | dose: 1.25 mg/kg/injection, schedule: Q01DX009 (ip), vehicle: other 109 % of control | dose: 2.5 mg/kg/injection, schedule: Q01DX009 (ip), vehicle: other 112 % of control | dose: 3.75 mg/kg/injection, schedule: Q01DX009 (ip), vehicle: other 105 % of control | dose: 5.0 mg/kg/injection, schedule: Q01DX009 (ip), vehicle: other 110 % of control | dose: 7.5 mg/kg/injection, schedule: Q01DX009 (ip), vehicle: other 114 % of control | dose: 15.0 mg/kg/injection, schedule: Q01DX009 (ip), vehicle: other 96 % of control

O=C(O)CSCC(=O)Nc1cc(C(F)(F)F)cc(C(F)(F)F)c1
inactive: dose: 60.0 mg/kg/injection, schedule: Q01DX005 (ip), vehicle: Klucel (hydroxypropylcellulose) (HPC) 95 % of control | dose: 120.0 mg/kg/injection, schedule: Q01DX005 (ip), vehicle: Klucel (hydroxypropylcellulose) (HPC) 98 % of control | dose: 240.0 mg/kg/injection, schedule: Q01DX005 (ip), vehicle: Klucel (hydroxypropylcellulose) (HPC) 113 % of control

CS\C(N)=N/N=C/C(C)=N/N=C(/N)SC
inactive: dose: 50.0 mg/kg/injection, schedule: Q04DX002 (ip), vehicle: saline with Tween-80 101 % of control | dose: 100.0 mg/kg/injection, schedule: Q04DX002 (ip), vehicle: saline with Tween-80 100 % of control | dose: 200.0 mg/kg/injection, schedule: Q04DX002 (ip), vehicle: saline with Tween-80 100 % of control

CC(C)=C(OS(=O)(=O)C(F)(F)F)[Si](C)(C)C
inactive: [3] 99 % of control | [4] 105 % of control | [5] 105 % of control

CC(C)c1ccc(Nc2n[nH]c(=S)s2)cc1
inactive: [6] 105 % of control | [7] 100 % of control | [8] 99 % of control

COc1cc(N(CCCl)CCCl)c(OC)cc1/C=N\Nc1nncn1N
inactive: dose: 0.25 mg/kg/injection, schedule: Q01DX009 (ip), vehicle: saline 95 % of control | dose: 0.5 mg/kg/injection, schedule: Q01DX009 (ip), vehicle: saline 104 % of control | dose: 0.63 mg/kg/injection, schedule: Q04DX003 (ip), vehicle: saline 100 % of control | dose: 1.25 mg/kg/injection, schedule: Q04DX003 (ip), vehicle: saline 100 % of control | dose: 2.5 mg/kg/injection, schedule: Q04DX003 (ip), vehicle: saline 107 % of control | dose: 5.0 mg/kg/injection, schedule: Q04DX003 (ip), vehicle: saline 123 % of control
active: dose: 1.25 mg/kg/injection, schedule: Q01DX009 (ip), vehicle: saline 154 % of control | [1] 154 % of control | [2] 186 % of control

O=C(CNC(=O)Nc1ccc(Cl)c(Cl)c1)N/N=C/c1c(O)ccc2ccccc12
inactive: dose: 3.75 mg/kg/injection, schedule: Q01DX005 (ip), vehicle: saline with Tween-80 96 % of control | dose: 7.5 mg/kg/injection, schedule: Q01DX005 (ip), vehicle: saline with Tween-80 102 % of control | dose: 15.0 mg/kg/injection, schedule: Q01DX005 (ip), vehicle: saline with Tween-80 88 % of control and 94 % of control | [9] 100 % of control

Nc1ncnc2c1ncn2CC(O)CBr (stereo not drawn)
inactive: [6] 101 % of control | [7] 104 % of control | [8] 93 % of control

COc1ccc(C(=O)Nc2ccccc2CCC2CCCCN2C)cc1 (stereo not drawn)
inactive: dose: 6.25 mg/kg/injection, schedule: Q01DX009 (ip), vehicle: saline 95 % of control | dose: 12.5 mg/kg/injection, schedule: Q01DX009 (ip), vehicle: saline 95 % of control | dose: 25.0 mg/kg/injection, schedule: Q01DX009 (ip), vehicle: saline 92 % of control | dose: 25.0 mg/kg/injection, schedule: Q01DX009 (ip), vehicle: suspension in saline 100 % of control

CCOC(=O)/C(Cl)=C(\C)Nc1nc2c(ccc3ccccc32)s1
inactive: [10] 98 % of control | [11] 90 % of control

COC12C=C(C(C)(C)C)C(CC1)C1C(=O)c3c(OC(=O)OCc4ccc([N+](=O)[O-])cc4)ccc(O)c3C(=O)C12 (stereo not drawn)
inactive: dose: 30.0 mg/kg/injection, schedule: Q01DX005 (ip), vehicle: saline with Tween-80 91 % of control | [10] 86 % of control and 94 % of control | [11] 91 % of control and 92 % of control | [9] 100 % of control

CCOC(=O)C1n2c(=O)n(-c3ccccc3)c(=O)n21
inactive: dose: 50.0 mg/kg/injection, schedule: Q01DX005 (ip), vehicle: Klucel + Tween-80 96 % of control | dose: 100.0 mg/kg/injection, schedule: Q01DX005 (ip), vehicle: Klucel + Tween-80 87 % of control | dose: 200.0 mg/kg/injection, schedule: Q01DX005 (ip), vehicle: Klucel + Tween-80 93 % of control

O=C1Oc2ccccc2CC1C(=O)c1ccc([N+](=O)[O-])cc1 (stereo not drawn)
inactive: dose: 50.0 mg/kg/injection, schedule: Q01DX005 (ip), vehicle: saline with Tween-80 99 % of control | dose: 100.0 mg/kg/injection, schedule: Q01DX005 (ip), vehicle: saline with Tween-80 106 % of control | dose: 200.0 mg/kg/injection, schedule: Q01DX005 (ip), vehicle: saline with Tween-80 103 % of control

Nc1cnc2nc(N)[nH]c(=O)c2c1
inactive: dose: 100.0 mg/kg/injection, schedule: Q01DX009 (ip), vehicle: saline sonified 120 % of control | dose: 200.0 mg/kg/injection, schedule: Q01DX009 (ip), vehicle: saline sonified 110 % of control | dose: 400.0 mg/kg/injection, schedule: Q01DX009 (ip), vehicle: saline sonified 105 % of control

NN1CC(=O)N(c2ccccc2)CC1=O
inactive: [3] 100 % of control | [4] 94 % of control | [5] 94 % of control
